According to patent publication US12569482B2, “Methods and compositions for treating idiopathic pulmonary fibrosis” (priority 2018, dated 2026):

Test system: bleomycin-induced lung fibrosis
Assay: Bleomycin induced IPF mouse model, Example 1 (oral nintedanib or fluconazole)
Type: in vivo, C57BL/6 mice
Conditions: nintedanib 60 mg/kg
Method: Forty male C57BL/6 mice (Nanjing Biomedical Research Institute of Nanjing University) were randomly divided into two groups on Day 1, 10 animals for one group (referred to as Control group or Group 1) and 30 for the other. The animals in the Control group were administered intratracheally with PBS at a dose of 2 mL/kg while the others were administered intratracheally with bleomycin (Cat #HY-17565, MCE) at a dose of 0.66 mg/kg.
On Day 5, the mice with bleomycin treatment were divided into three groups at random (referred to as Group 2-4, n=10), and orally administered with vehicle (0.5% Methyl cellulose), nintedanib (Kangmanlin Co. Ltd., prepared in 0.5% Methyl cellulose with a final concentration of 6.0 mg/mL) and fluconazole (Kangmanlin Co. Ltd., prepared in 0.5% Methyl cellulose with a final concentration of 7.0 mg/mL) at daily doses of 10 mL/kg, 60 mg/kg and 70 mg/kg, respectively. The mice in the Control group was administered with vehicle (0.5% Methyl cellulose) at a daily dose of 10 mL/kg. Mice body weights were measured and recorded on Day 1, 5, 12, 19 and 25.
Two hours post drug administration on Day 25, all animals were anaesthetized with pentobarbital (i.p., 65 mg/kg). Blood samples were collected from orbital vein, put in tubes pre-coated with EDTA-K2 (KANG JIAN, Cat #KJ202), centrifuged at 4000×g for 10 minutes at 4° C. and then stored at −80° C. for determination of plasma drug levels. Then, the trachea was exposed, and bronchoalveolar lavage fluid (BALF) was collected from each mouse by injecting 0.3 mL of saline into trachea close to the larynx for three times. After BALF collection, mice were perfused with saline, and all four lung lobes were collected from each mouse, fixed in 10% NBF solution, embedded in paraffin and cut into 5 μm-thick sections. The sections were de-paraffinized with xylene and ethanol and subject to Haematoxylin-Eosin, Masson Trichrome and α-SMA IHC staining.
The bronchoalveolar lavage fluid of 20 μL was mixed with 20 μL of trypan blue to determine the cell number. Then, the cells in the BALF were concentrated using a Cytospinat at 1,000 rpm for 5 minutes, smeared on slides and then stained with Diff-Quik stain. Cell types (alveolar macrophages, neutrophils, or lymphocytes) were determined by counting at least 200 cells using a standard hemocytometer. The rest BALFs were centrifuged and supernatants were collected and stored at −80° C. for soluble collagen analysis.
The Haematoxylin-Eosin staining was used to identify and quantitate the inflammatory cells in the tissues, and the total inflammation area was calculated using the AperioScanScope software.
The sections with Masson Trichrome staining were scored for pulmonary fibrosis according to the modified Ashcroft fibrosis rating criteria in Table 1 below. Each lung lobe was divided into 4 parts according to the distance from the main bronchus, i.e., the upper, upper middle, lower middle and lower parts, which were scored separately and averaged later.
α-SMA is a well characterized marker in fibrosis. Immunohistochemistry staining of α-SMA is often used to characterize and quantitate the tissue fibrosis. Increased staining of α-SMA often reflects accumulation of collagen-producing myofibroblasts. Before α-SMA IHC staining, the de-paraffinized sections were treated with citrate antigen retrieval solution (0.01 N citrate buffer, pH 6.0) at 100° C. for 10 minutes, and then incubated with rabbit polyclonal anti-α-SMA (1:400, ab5694, Abcam) for 1 hour followed by goat anti-rabbit HRP (K4003, Dako). DAB substrate kit (DAB0031, Maixin, Shanghai) was used for chromogenic staining. All sections were further counter-stained with hematoxylin. […] α-SMA staining areas were calculated using the AperioImageScope program.
Statistical analysis was performed using student's T-test, one-way or two-way ANOVA followed by post-hoc Dunnett's test if significant. […] The difference was considered significant when p<0.05. *p<0.05, **p<0.01, ***[…].

Structure (SMILES): COC(=O)c1ccc2c(c1)NC(=O)/C2=C(\Nc1ccc(N(C)C(=O)CN2CCN(C)CC2)cc1)c1ccccc1 [nintedanib]
- reduction of lung inflammation area (Haematoxylin-Eosin staining, fluconazole 70 mg/kg p.o. daily): 84%
- reduction of modified Ashcroft score (Masson Trichrome staining, fluconazole 70 mg/kg p.o. daily): 39%
- anti-IPF activities / fibrosis related endpoint measurements (overall) (fluconazole 70 mg/kg daily dose): efficacious
- total cell number and macrophage/monocyte number in BALF (oral daily Day 5-25): reduced cell number to some extent
- BALF collagen levels (oral daily Day 5-25, fluconazole 70 mg/kg, vs bleomycin + vehicle): significantly reduced collagen levels
- reduction of α-SMA staining area (α-SMA IHC, fluconazole 70 mg/kg p.o. daily): 39%
